The subject of series [1] is HeLa cells. The series is described as follows: Cytoprotection against ER stress (tunicamycin), IncuCyte. It is filed as cell-based. The settings on record: Homo sapiens, 250 ng/ml Tunicamycin, 72 hours, compound 0-20 μM, read-out: Cytoprotection from Tm (compared to GNB). As for the experimental part: (§1) HeLa cells (40,000 cells/ml) were plated in a 96-well plate and treated with different concentrations (0-20 μM) of a compound as indicated in the presence of 250 ng/ml Tunicamycin for 72 hours. To monitor cell death 1/2000 dilution of the CellTox green dye (Promega) was added to the media. The growth of the cells was monitored over time and pictures taken every 2 hours with the IncuCyte ZOOM system and analysed by the IncuCyte ZOOM software (Essen BioScience). […] Cytoprotection against ER stress can be measured by a suitable assay. In this instance, cytoprotection was measured in HeLa cells in which ER stress was elicited by the addition of media containing tunicamycin, a drug that blocks N-glycosylation, thereby preventing protein folding and inducing the unfolded protein response. Cell viability was then detected in the presence and absence of a compound listed in Table 1 after a set period of time, by monitoring cell growth over time. Cytoprotection from ER stress was measured in terms of the percentage increase in viable cells (relative to control) after ER stress.

In the next series the target is T1, PPP1R15A-PP1 complex (Homo sapiens, UniProt O75807).
T1 construct: cDNAs encoding amino acids 325-636 of PPP1R15A and 340-698 of PPP1R15B were His-tagged and cloned into pMAL-c5x; made in house; host or cells: R15A: E. coli BL21-Gold (pMAL-c5x); PP1γ: Sf9 insect cells (baculovirus, pDW464)
T1 sequence (O75807 325-636): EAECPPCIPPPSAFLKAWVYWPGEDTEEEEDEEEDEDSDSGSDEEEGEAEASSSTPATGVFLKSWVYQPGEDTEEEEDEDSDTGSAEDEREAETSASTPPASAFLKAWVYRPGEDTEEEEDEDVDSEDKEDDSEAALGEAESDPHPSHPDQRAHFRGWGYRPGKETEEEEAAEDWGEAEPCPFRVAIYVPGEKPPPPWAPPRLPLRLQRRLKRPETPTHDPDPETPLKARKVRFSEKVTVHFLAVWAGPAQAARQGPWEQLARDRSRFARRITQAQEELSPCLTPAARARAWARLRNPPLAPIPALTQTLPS
T1 sequence (P36873 whole entry partner, the tested form may be a part): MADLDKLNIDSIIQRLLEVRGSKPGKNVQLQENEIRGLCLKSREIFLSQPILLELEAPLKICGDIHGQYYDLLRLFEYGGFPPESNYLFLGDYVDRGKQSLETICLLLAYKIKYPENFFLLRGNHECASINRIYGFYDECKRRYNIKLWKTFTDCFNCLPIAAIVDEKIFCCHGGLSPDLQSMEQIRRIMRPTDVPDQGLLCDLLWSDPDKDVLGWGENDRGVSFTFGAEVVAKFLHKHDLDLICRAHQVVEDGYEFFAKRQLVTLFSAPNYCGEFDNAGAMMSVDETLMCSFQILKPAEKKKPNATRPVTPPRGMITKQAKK
The series is described as follows: SPR steady-state binding to R15A-PP1 holophosphatase. The settings on record: SPR steady-state, MBP-R15A325-636-His captured on bio-PP1c, 10° C.; read-out: R15A (KD). As for the experimental part:
PPP1R15A^325-636 and PPP1R15B^340-698 were expressed and purified as follows: the cDNAs encoding amino acids 325-636 of PPP1R15A and 340-698 of PPP1R15B were His-tagged and cloned into pMAL-c5x. Recombinant PPP1R15A/B were expressed in BL21-Gold cells and purified by affinity chromatography on a HisTrap HP column (GE Healthcare), followed by a MBPTrap HP column (GE Healthcare). The proteins were analyzed on BOLT SDS-PAGE 4-12% Bis-Tris gels (Life Technologies) stained with SimplyBlue SafeStain (Life Technologies). cDNA encoding for human PP1γ was cloned into the baculovirus transfer vector pDW464 to add a biotin acceptor peptide (BAP). The vector also encodes for the E. coli biotin holoenzyme synthetase (BirA), so that BAP-tagged proteins can be biotinylated in vivo in Spodoptere frugiperda (Sf9) insect cells (Duffy et al., Anal. Biochem., 262, 122-128, 1998). The Bac-to-Bac baculovirus expression system (Life Technologies) was used to generate the recombinant bacmid DNA and Sf9 insect cells were used to amplify the viral stocks Cultures were harvested by centrifuging at 1,200 g for 15 minutes, cell pellets were resuspended in lysis buffer (50 mM Tris pH 7.4, 150 mM NaCl, 0.2% Triton, 5% Glycerol, 1 PiC tablet (Roche) per 50 ml and 0.2 mM PMSF) and followed by gentle sonication. The protein was first purified on a 5 ml HiTrap Q HP column (GE Healthcare) followed by a HiLoad 16/600 Superdex 200 column (GE Healthcare). The positive fractions confirmed by SDS-PAGE and western blot were pooled, concentrate to ˜1 μM and stored at −80° C.
A Biacore T200 (GE Healthcare) system was used for all experiments and biotinylated PP1 was captured using a Sensor Chip SA (GE Healthcare, catalog no BR-1005-31). The streptavidin coated surface was activated by 1 min injection with a solution of 50 mM NaOH and 1 M NaCl. Biotin-PP1 was diluted in the running buffer (50 mM Tris pH 7.5, 100 mM NaCl, 0.1 mM EGTA, 1 mM MnCl2, 0.05% Tween 20) and injected at approximately 300 nM concentration directly to streptavidin coated surface for 100 sec or to reach immobilization level of biotin-PP1 corresponding to ˜7000 RU. A blank immobilization was performed for one of the SA sensor chip surface to use as a reference.
With minor deviations, the same procedure and conditions were used in all binding experiments. Small molecules were stored as 50 mM stock solutions in 100% DMSO. Prior to determining binding constants, serial dilutions of either 12 or 8 concentrations of the compounds were prepared in the running buffer in a 96-well plate. Prior to each compound dilution series the regulatory subunit, R15A or R15B, was diluted to […] in the running buffer and captured on the biotin-PP1 surface, to form the holophosphatase complex on the sensor chip surface. Then, without regenerating the surface, the compound dilution series was injected onto the surface of the chip Sensorgrams were analyzed using the Biacore T200 evaluation software and the binding constants determined based on a steady-state model. Kinetic experiments are carried out using different concentrations of the compound and their respective equilibrium binding levels determined.
Surface Plasmon Resonance (SPR) was used to measure the binding affinity of compounds to the PPP1R15A/B-PP1 phosphatase complex. Biotin acceptor peptide (BAP) was fused to the N-terminus of PP1γ, which enables the biotinylation of the BAP-tagged protein in Sf9 insect cells. After purification the BAP-PP1γ protein was captured on a streptavidin sensor chip (SA-chip, GE healthcare) to a response level of ˜5.000 RU. Using controlled biotinylation enables orientated and uniform immobilization on the sensor chip surface. The PP1γ was then used to capture PPP1R15A/B and form a holophosphatase complex on the surface of the streptavidin chip. This complex can then be used to test binding of compounds. 10 μM PPP1R15A/B protein concentration was used to form the holophosphatase complex during a 80 s injection. […]

A further series concerns the target T2, PP1 (Homo sapiens, UniProt P36873).
T2 construct: made in house; host or cells: Sf9 insect cells (baculovirus, pDW464)
The series is described as follows: SPR binding to PP1 alone. The settings on record: SPR steady-state, bio-PP1c surface.

The test system of series [2] is HeLa cells. The series is described as follows: Cell death dose response (CellTox green, IncuCyte). It counts as cell-based. The settings on record: for EC50: Homo sapiens, area under % cell death vs time curve against log conc, read-out: Effect on cell death ⇒ EC50; for Effect on cell death: IncuCyte, 0-20 μM. How it is done: Toxicity of the compounds is assessed using Cell viability Counting Kit-8 (Dojindo) or in a Incucyte (Essenbioscience) using both phase contrast and IncuCyte™ Cytotox Green Reagent.
as §1
EC50 were extrapolated from dose response experiments on cell death. Data from IncuCyte was plotted and analysed in Prism. The “% of cell death” for each data point. For each concentration there is a % of cell death vs time, the area under the curve was taken and plotted against log conc=>EC50 (analysis in Prism).

SMILES strings stand for the structures.

T2 sequence (P36873 whole entry): as the sequence (P36873 whole entry partner, the tested form may be a part) above

Usually Kd stands for the concentration at which binding is half-saturated. By EC50 is commonly meant the concentration that produces a half-maximal response. In the case of `[H]/N=C(\N)NN=Cc1cccc(Cl)c1Br` [Compound 9, (E)-2-(2-bromo-3-chlorobenzylidene)hydrazine-1-carboximidamide], the Emax in the series with HeLa cells [1] turned out to be 67%. In addition, on PPP1R15A-PP1 complex, the Kd was found to be 13.6 ± 0.8 µM. This molecule yielded an equilibrium dissociation constant (Kd) at PP1 of 14.7 ± 1.4 µM. Further, in the series with HeLa cells [2], the 50% effective concentration (EC50) is 12 µM and the “Effect on cell death” value is listed as “Yes”.
The like results for `[H]/N=C(\N)NN=Cc1ccc(F)c(Cl)c1` [Compound 15, (E)-2-(3-chloro-4-fluorobenzylidene)hydrazine-1-carboximidamide] were, in that order, 46%, 11.2 µM, 6.14 ± 0.28 µM, 19.5 µM and “Yes”.
`[H]/N=C(\N)NN=Cc1ccccc1F` [Compound 17, (E)-2-(2-fluorobenzylidene)hydrazine-1-carboximidamide]: the Emax in the series with HeLa cells [1] came out at 66%. For the same molecule, the equilibrium dissociation constant (Kd) turned out to be 13 ± 0.5 µM on PPP1R15A-PP1 complex and 12 ± 0.8 µM on PP1. For the same molecule, in the series on HeLa cells [2], the “Effect on cell death” value was “No”.
Regarding `N=C(N)N/N=C/c1cc(Cl)c(Cl)cc1F` [Compound 18, (E)-2-(4,5-dichloro-2-fluorobenzylidene)hydrazine-1-carboximidamide], the Emax with HeLa cells [1] was determined as 54%. For the same molecule, the dissociation constant (Kd) turned out to be 10.2 ± 1.62 µM on PPP1R15A-PP1 complex and 10.2 ± 0.14 µM on PP1. The EC50 in the series with HeLa cells [2] turned out to be 23.8 µM. The “Effect on cell death” value with HeLa cells [2] was “Yes”.
On to `[H]/N=C(\N)NN=Cc1cccc(Cl)c1` [Compound 24, (E)-2-(3-chlorobenzylidene)hydrazine-1-carboximidamide], for which the Emax with HeLa cells [1] stood at 62%. Further, the Kd was found to be 18.1 ± 7.57 µM at PPP1R15A-PP1 complex and 6.27 µM on PP1. Further, the “Effect on cell death” value in the series with HeLa cells [2] was “No”.
Turning to `[H]/N=C(\N)NN=Cc1cccc(Cl)c1F` [Compound 30, (E)-2-(3-chloro-2-fluorobenzylidene)hydrazine-1-carboximidamide], in the series with HeLa cells [1], the Emax stood at 85%. Further, the Kd turned out to be 5.15 ± 1.7 µM at PPP1R15A-PP1 complex and 12.8 ± 0.08 µM on PP1. The “Effect on cell death” value in the series with HeLa cells [2] is recorded as “No”.
In the case of `[H]/N=C(\N)NN=Cc1c(Cl)ccc(Cl)c1Cl` [Compound 31, (E)-2-(2,3,6-trichlorobenzylidene)hydrazine-1-carboximidamide], the Emax in the series with HeLa cells [1] is 99%. For the same molecule, the dissociation constant (Kd) on PPP1R15A-PP1 complex was 11.1 ± 1.6 µM; at PP1, 12.6 ± 1.4 µM. Also, the “Effect on cell death” value in the series with HeLa cells [2] is “No”.

The record behind these values is patent US11154519B2, “Inhibitors and their uses” (MEDICAL RESEARCH COUNCIL, priority 2015, dated 2021).
